# Laboratory results taken from a melting point compilation (Tetko et al.).
# Conditions: a range is the spread between reports
row,SMILES,melting point
1,C(=C\c1ccccc1)/c1ccccc1,123 to 126 °C
2,O=Cc1cc(Cl)cc(Cl)c1,63 to 68 °C
3,Brc1ccccc1Br,5 to 7.1 °C
4,CCCCCI,-86 to -85.6 °C
5,O=C(O)c1cc(Cl)ccc1O,171 to 174 °C
6,CCc1ccc(O)cc1,43 to 47 °C
7,c1ccc(-c2c3ccccc3c(-c3ccccc3)c3ccccc23)cc1,246 to 251 °C
8,CCCCCCC(=O)Cl,-84 to -83.8 °C
9,Cc1cccc(C(=O)O)c1,109 to 112 °C
10,OCc1ccc2c(c1)OCO2,53 to 58 °C
11,CC(C)[C@@H]1CC[C@@H](C)C[C@H]1O,42 to 44 °C
12,Nc1cc(Cl)ccc1O,140 to 143 °C
13,CCOC(=O)CC(C)=O,-45 to -43 °C
14,Nc1ccc(S(=O)(=O)Nc2nccs2)cc1,200 to 202 °C
15,CCOC(=O)C(NC=O)C(=O)OCC,48.5 to 53 °C
16,Cc1ccc(Cl)cc1,7 to 8 °C
17,C=CCCCCCCCCCCCCC,-4 to -2.8 °C
18,C=CC=C,-113 to -109 °C
19,CCCC(C)=O,-78 to -76.9 °C
20,O=C(O)CCCCCCCCCCC(=O)O,128 to 129 °C
21,O=C(O)c1ccccc1F,124 to 126 °C
22,c1ccc2cc3c(ccc4ccccc43)cc2c1,158 to 160 °C
23,COc1cccc([N+](=O)[O-])c1C,53 to 55 °C
24,Oc1ccc(Cl)c(O)c1,106 to 107 °C

row,SMILES,melting point
1,Fc1cc(F)c(F)c(F)c1F,-48 to -47.3 °C
2,Cc1cccc(-c2ccccc2)c1,4.5 to 5 °C
3,CCCCCCCCCCCCCCCCCC(=O)OCC,33 to 35 °C
4,Nc1ccncn1,150 to 155 °C
5,c1ccc2c(c1)ccc1ccccc12,99 to 101 °C
6,O=C1C=CC(=O)N1,92 to 94 °C
7,OCC1CCCNC1 (centres undefined),60 to 61 °C
8,CCc1cc(C(C)(C)C)c(O)c(C(C)(C)C)c1,43 to 44 °C
9,O=C(O)c1cc2ccccc2cc1O,220 to 222 °C
10,Clc1ccccc1Cl,-18 to -16.7 °C
11,O=C(O)c1cc([N+](=O)[O-])ccc1Cl,166 to 167 °C
12,C1CCCCC1,6.45 to 7 °C
13,COC(=O)c1cccc(O)c1,71 to 74 °C
14,Cc1n[nH]cc1Br,75 to 76.5 °C
15,Cc1cc(C)c(C)cc1C,79 to 80 °C
16,NC(=O)c1ccccc1N,108 to 113 °C
17,CC(=O)OCC(C(OC(C)=O)c1ccccc1)[N+](=O)[O-] (centres undefined),70 to 71 °C
18,ClC(c1ccccc1)(c1ccccc1)c1ccccc1,112 to 114 °C
19,COc1ccc(N)c([N+](=O)[O-])c1,124 to 127 °C
20,C=C(Br)CC,-133 °C
21,O=C=Nc1ccc(N=C=O)cc1,94 to 97.5 °C
22,CC(Cl)C(Cl)(Cl)Cl (centres undefined),-65 to -64 °C
23,NNC(=O)Nc1ccccc1,124 to 128 °C
24,Cc1ccc2cccc(O)c2n1,72 to 73.8 °C

row,SMILES,melting point
1,OCCCCCCCCCO,45.8 to 47 °C
2,N#CCc1ccc(Cl)cc1,30 to 31 °C
3,N#Cc1nn(-c2c(Cl)cc(C(F)(F)F)cc2Cl)c(N)c1S(=O)C(F)(F)F (centres undefined),199 to 200 °C
4,NNC(=O)NN,154 to 158 °C
5,CCCCCCCCCCC(C)=O,19 to 21 °C
6,O=C(O)c1c(F)cccc1F,158 to 159 °C
7,Cc1cc(NS(=O)(=O)c2ccc(N)cc2)no1,167 to 172 °C
8,c1ccc(Nc2cccc3ccccc23)cc1,61 to 62 °C
9,C=C(C)c1ccc(C(=C)C)cc1,63.5 to 66 °C
10,Clc1ccc(I)cc1,54 to 57 °C
11,FC(F)F,-160 to -155 °C
12,O=C(Cl)c1ccc(F)cc1,9 to 10 °C
13,Oc1ccccc1-c1nc2ccccc2s1,131 to 132 °C
14,CCC1CCCC1,-138 °C
15,O=[N+]([O-])c1ccc(Br)cc1,126 to 127 °C
16,C#Cc1ccccc1,-45 to -44.8 °C
17,CC,-183 °C
18,O=C(C=CC=Cc1ccc2c(c1)OCO2)N1CCCCC1,131 to 132 °C
19,C[Si](C)(C)[Si](C)(C)C,12 to 13.5 °C
20,CC1(C)OC(=O)NC1=O,76.5 to 79 °C
21,O=P(O)(O)CCCl,70 to 74.5 °C
22,CC(=O)NBr,104 °C
23,O=C(O)c1ccc(Cl)c([N+](=O)[O-])c1,182 to 183 °C
24,Clc1cc(Cl)c(Cl)cc1Cl,139 to 140 °C

row,SMILES,melting point
1,c1ccc(-c2nc(-c3ccccc3)c(-c3ccccc3)[nH]2)cc1,275 to 276 °C
2,O=c1c(O)c(-c2ccccc2)oc2cc(O)cc(O)c12,214 to 215 °C
3,N#Cc1ccc([N+](=O)[O-])cc1,145 to 149 °C
4,CCCCCCCCCCCCCCCCCC(=O)OC,39.1 to 40 °C
5,c1ccc(C(=C(c2ccccc2)c2ccccc2)c2ccccc2)cc1,224 to 225 °C
6,CCC1(c2ccccc2)C(=O)NC(=O)NC1=O,174 to 176 °C
7,CCSCC,-104 °C
8,CCCCCCCCCCCCCCCCCCCCCCCCCCCCCCCCCCCC,76 to 76.5 °C
9,C1=Cc2cccc3cccc1c23,91 to 92.5 °C
10,O=Cc1ccc2ccccc2c1,61 to 62 °C
11,COC(=O)c1ccccc1,-15 to -12 °C
12,O=C(O)C(F)(F)C(F)(F)C(=O)O,115 to 119 °C
13,C=CC(C)C,-168 °C
14,CCOc1ccc(NC(C)=O)cc1,134 to 138 °C
15,CC12CCC3C(CCC4CC(OCc5ccccc5)CCC43C)C1CCC2=O (centres undefined),216 to 220 °C
16,CCCOC(C)=O,-95 to -92 °C
17,OCCc1ccccn1,-8 to -7.8 °C
18,C=CCn1c(=O)n(CC=C)c(=O)n(CC=C)c1=O,20.5 to 24 °C
19,OC1CCCC1,-20 to -16.2 °C
20,Brc1ccc(I)cc1,91 to 92 °C
21,O=Cc1c(O)ccc2ccccc12,79 to 83 °C
22,O=C(O)c1ccc(C(=O)c2ccccc2)cc1,198 to 199 °C
23,Oc1ccc(O)c(-c2ccccc2)c1,101 to 102 °C
24,O=S(=O)(Cc1ccccc1)Cc1ccccc1,151 to 152 °C

row,SMILES,melting point
1,c1ccc(-c2ccncc2)nc1,61 to 61.5 °C
2,O=C(O)c1cccc(Cl)c1,156 to 158 °C
3,NC(=O)OCc1ccccc1,87 to 88 °C
4,Cc1ccccc1CBr,19 to 21 °C
5,C=C(C)C(=O)OC,-48 to -47.5 °C
6,O=C1C(=O)c2ccccc2-c2ccccc21,206 to 210 °C
7,Oc1ccc(F)cc1,44.5 to 48 °C
8,O=Cc1cccc(O)c1,104 to 108 °C
9,O=C(OCc1ccccc1)c1ccccc1,18 to 21 °C
10,CCOc1cc(C=O)ccc1O,77 to 77.5 °C
11,c1ccc(-c2cnc(-c3ccc(-c4ncc(-c5ccccc5)o4)cc3)o2)cc1,242 to 245 °C
12,CC1=c2ccccc2=NC1c1ccccc1 (centres undefined),91 to 91.5 °C
13,COc1ccc(NC(C)=O)cc1,127 to 131 °C
14,CC(N)=S,112 to 116 °C
15,Cc1nnc(S)s1,184 to 187 °C
16,O=Cc1ccco1,-38.1 to -36 °C
17,Cc1cnc2ccccc2c1,15 to 16.5 °C
18,N#Cc1cccc(C=O)c1,76.5 to 77 °C
19,CCCC#N,-112 °C
20,COc1cc(CC(=O)O)ccc1O,143 to 144 °C
21,CC(=O)Nc1ccc([N+](=O)[O-])cc1,215 to 216 °C
22,Cc1cccc(C)c1[N+](=O)[O-],15 to 16 °C
23,CCc1ccc(Cl)cc1,-63 to -62.6 °C
24,S=c1nc[nH]c2nc[nH]c12,313 to 314 °C

row,SMILES,melting point
1,CCCC1CCCCC1,-95 to -94.9 °C
2,N#Cc1ccccc1Cl,45 to 46.3 °C
3,Cc1ccc2ccccc2c1,33 to 34.4 °C
4,CC(CC(=O)O)CC(=O)O,86 to 87 °C
5,CCCCc1ccccc1,-88 to -87.9 °C
6,O=C(Cc1ccccc1)c1ccccc1,55 to 60 °C
7,N#Cc1ccccc1,-13 to -12.7 °C
8,O=C(CO)c1ccccc1,4.5 to 6 °C
9,FC(F)(F)F,-184 °C
10,NNC(=O)c1ccccc1O,148 °C
11,CC(C)Nc1ccc(Nc2ccccc2)cc1,74 to 77 °C
12,Cc1ccc(-c2ccccc2)cc1,46 to 49.5 °C
13,CCCCOC(=O)c1ccc(N)cc1,57.5 to 58 °C
14,OCC(O)c1ccccc1 (centres undefined),67 to 68 °C
15,NCCc1c[nH]c2ccccc12,114 to 118 °C
16,O=[N+]([O-])c1ccc(F)cc1F,9 to 10 °C
17,CCCCC(C)C,-118 °C
18,BrCBr,-53 to -52 °C
19,O=S(c1ccccc1)c1ccccc1,70 to 71.2 °C
20,O=c1cc(-c2ccccc2)oc2ccccc12,97 to 100 °C
21,C[Si](C)(C)C,-100 to -99 °C
22,CC1=CC(=O)c2ccccc2C1=O,102 to 107 °C
23,C=C(C)C#N,-36 to -35.8 °C
24,CCCCCCCCCCCCCCCCCCCCCCCCCCCC,62 to 64.5 °C

row,SMILES,melting point
1,O=C(O)c1ccnc2ccccc12,254 °C
2,Oc1ccc(O)cc1,170 to 175 °C
3,Cn1c2ccccc2c2ccccc21,89.3 to 91 °C
4,COC(=O)c1ccc(Cl)c([N+](=O)[O-])c1,80 to 83 °C
5,Oc1ccc(Cl)cc1Cc1ccccc1,48 to 48.5 °C
6,CCCCCCCC#N,-46 to -45 °C
7,CC1CC=CCC1 (centres undefined),-116 to -115 °C
8,O=[N+]([O-])NC1=NCCN1Cc1ccc(Cl)nc1,140 to 144 °C
9,CCOC(=O)C(C(=O)OCC)C(=O)OCC,28 to 29 °C
10,CCc1ccc(C(=O)O)cc1,112 to 113 °C
11,O=C1CC(c2ccc(O)cc2)Oc2cc(O)cc(O)c21 (centres undefined),250 to 251 °C
12,COC(=O)c1ccc(O)cc1,127 to 131 °C
13,C=Cc1ccc([N+](=O)[O-])cc1,27 to 29 °C
14,CC(=O)OCCCCOC(C)=O,12 to 13 °C
15,Nc1ccccc1[N+](=O)[O-],71 to 73 °C
16,CC(Br)C(Br)C(=O)O (centres undefined),85 to 87 °C
17,Cc1ccc(S(=O)(=O)c2ccc(C)cc2)cc1,157 to 159 °C
18,O=C(Oc1ccc([N+](=O)[O-])cc1)c1ccccc1,139 to 143 °C
19,Cc1cc(C)cc([N+](=O)[O-])c1,71 to 75 °C
20,N#CCC#N,32 to 34 °C
